Results: patent US9173898B2, “Methods of treating giardiasis” (THE UNITED STATES OF AMERICA, as represented by the …, priority 2010, dated 2015)
≈ marks a conversion by molar mass, not a printed value. Counter-ions that a name gives are not always drawn.

Columns and labels:
Giardia WB = assay: Giardia viability (ATP content) assay in 1536-well format; type: cell-based, Giardia lamblia; conditions: for Emax: 48 h, read-out: Giardia WB Efficacy; for Emax / Giardia WB Efficacy: percent reduction in ATP levels compared with 38.3 mM Mnz at maximal compound concentration; for IC50: concentration at which 50% of DMSO control ATP levels are detected, 48 hours, 1536-well
Method: (§1) For the viability assay in 1536-well format, 2 μL media was dispensed per well into 1536-well white solid-bottom plates using a Multidrop Combi dispenser (Thermo Scientific). Subsequently, 23 nL/well compound solutions or DMSO controls were dispensed to the assay plates containing media via a pintool workstation (Kalypsys, San Diego). Trophozoites were chilled on ice to detach from glass tubes, and unless otherwise noted, were diluted to 250,000 trophozoites/mL with ice cold media. The trophozoite suspension was kept on ice and dispensed as 4 μL/well with the Multidrop Combi dispenser. Attachment of trophozoites to dispensing apparatus was avoided with continuous dispensing and icing of the trophozoite suspension. The plates were covered with plastic low-evaporation lids, individually sealed in Type A Bio-Bags and incubated at 37° C. for 48 hours. Following incubation, 4 μL/well of ATPLite reagent was dispensed with the Multidrop Combi dispenser. The assay plates were briefly centrifuged at 1000 RPM and luminescence signal was detected on a ViewLux plate reader (PerkinElmer) after 20 min incubation at room temperature. Signal-to-basal (S/B) ratio, Z′ factor and coefficient of variation (CV) were calculated from 32 wells with 0.38% DMSO (total signal) and 32 well with 38.3 μM Mnz (basal signal).
Assay miniaturization in 1,536-well plate format was undertaken to increase throughput and facilitate screening of large compound libraries. The volume of trophozoites suspension was reduced to 6 μL/well and the ATP detection reagent was reduced to 4 μL/well in the 1536-well assay plates. […] The 100 trophozoites/well density was selected for further experiments to reduce the preparation work of Giardia cultures. Following these conditions, a DMSO test plate was used to assess the statistical parameters of the assay in the 1,536-well plate format.
Using the above established conditions in 1536-well format, each compound of the invention was tested at 5 concentration points, ranging from 61 nM-38.3 μM in a 1:5 dilution ratio (Inglese, J., D. S. Auld, A. Jadhav, R. L. Johnson, A. Simeonov, A. Yasgar, W. Zheng, and C. P. Austin. 2006. Quantitative high-throughput screening: a titration-based approach that efficiently identifies biological activities in large chemical libraries. Proc Natl Acad Sci USA 103:11473-8).

CHO cells [1] = assay: CHO cell cytotoxicity assay in 1536-well format (ATP content counter-screen); type: cell-based, Chinese hamster; conditions: concentration at which 50% of DMSO control ATP levels are detected, 48 hours
Method: For the viability assay in 1536-well format, 2 μL media was dispensed per well into 1536-well white solid-bottom plates using Multidrop Combi dispenser. Subsequently, 23 nL/well compound solutions or DMSO controls were dispensed to the assay plates via a pintool workstation. The Chinese hamster ovary (CHO) cells were grown in T225 flasks to 70% confluence under a standard cell culture condition (ATCC), detached with 0.25% Trypsin/EDTA, and seeded at 250 cells/well in 4 μL media (Dulbecco's Modified Eagle Medium, 10% fetal bovine serum, 1× penicillin/streptomycin). The plates were incubated at 37° C. with 5% CO2 and 95% humidity for 48 hours. Subsequently, ATP content was measured following the addition of 4 μL/well of ATPLite reagent and a 20 min incubation on a ViewLux plate reader.
Data from the CHO cell counter-screen underwent the same initial analysis, with the exception that raw luminescence counts were normalized relative to DMSO only wells (0% activity) and 38.3 μM camptothecin treated wells (100% activity).
CHO cells, commonly used in high throughput compound screening, were selected to determine the cytotoxicity of the compounds towards a mammalian cell line.

[2] = system: Giardia lamblia GS isolate; assay: Minimum Lethal Concentration (MLC) determination; type: cell-based; conditions: 3 days with compound, then 3 days regrowth without compound, tube without any live organisms
Method: Giardia lamblia GS isolate was used throughout the Minimal Lethal Concentration (MLC) experiments. Organisms were grown and maintained in TYI-S-33 medium supplemented with bile and antibiotics (Keister, 1983). Cidal activity was determined in 96-well culture plates (Corning Incorporated) followed by Giardia trophozoites regrowth in 8 ml tubes (Fisher Scientific). Dry compounds were dissolved in DMSO (Sigma) at stock concentration of 10 mM and then added to the growth media to ensure final DMSO concentration of no more than 0.5%. 100 μl of the compound solutions were placed in the wells by serial dilutions. 10 μl of Giardia trophozoites containing 10000 organisms were then added. Serial dilutions of metronidazole served as the positive control and the DMSO-containing medium served as the negative control. Plates were incubated under anaerobic conditions in sealed bags (Becton Dickinson and Company) at 37° C. for 3 days and surveyed visually under microscope to check survival, mobility and attachment of trophozoites. The plate was chilled on ice for 30 min and the entire contents of 4 wells in the growth/death transition were transferred into the 8 ml tubes containing growth media only (without the compound). After 3 days of incubation at 37° C., tubes were checked under microscope for any surviving trophozoites. MLC was attributed to the tube without any live organisms. See, e.g., Keister, D. B. 1983. Axenic culture of Giardia lamblia in TYI-S-33 medium supplemented with bile. Trans. Soc. Trop. Med. Hyg. 77:487-488.

CHO cells [3] = assay: CHO cell cytotoxicity assay in 1536-well format (ATP content counter-screen); type: cell-based, Chinese hamster; conditions: for Emax: Cricetulus griseus, CHO, 48 h, percent reduction in ATP levels compared with 38.3 µM camptothecin at maximal compound concentration, read-out: CHO Efficacy; for CHO Efficacy: percent reduction in ATP levels compared with 38.3 mM camptothecin at maximal compound concentration
G. lamblia GS isolate = assay: ATP content assay against G. lamblia GS isolate; type: cell-based, Giardia lamblia; conditions: Giardia duodenalis; Table 2, screen; read-out: Giardia GS IC50
Method: as §1
As a further confirmatory step, some compounds that were commercially available were purchased as powder samples and tested against the G. lamblia GS isolate using both the ATP content and enumeration assays (Table 3).

Row | Compound | Emax (Giardia WB; Giardia) [%] | IC50 (Giardia WB; Giardia) [nM] | IC50 (CHO cells [1]; Cricetulus griseus, CHO) [nM] | MBC ([2]; Giardia duodenalis, 72 h) [µM] | Emax (CHO cells [3]) [%] | IC50 (G. lamblia GS isolate) [nM] | IC50 (Giardia WB) [nM] | Giardia WB Efficacy (Giardia WB) [%] | IC50 (CHO cells [1]) [nM] | MBC [2] [µM] | CHO Efficacy (CHO cells [3]) [%]
1 | COC(=O)[C@H]1[C@H]2C[C@@H]3c4[nH]c5ccccc5c4CCN3C[C@H]2C[C@@H](OC(=O)c2cc(OC)c(OC)c(OC)c2)[C@@H]1OC [Deserpidine] | 94.5 | 1630 | 280 | 1.54 (≈ 0.891 µg/mL) | 13 | 283 | – | – | – | – | –
2 | Amlexanox | – | – | – | – | – | – | 2590 | 92.4 | 3260 | >41.7 | 89.3
3 | Bortezomib [Bortezomib (S,R)] | – | – | – | – | – | – | 70 | 92.8 | 10 | – | 36.2
4 | CCCOc1ccc2nc(NC(=O)OC)sc2c1 [Tioxidazole] | 90.9 | 1460 | > 100000 | 1.54 (≈ 0.41 µg/mL) | 34.9 | 634 | – | – | – | – | –
5 | COc1cc2c(cc1O)CCN[C@]21CS[C@H]2c3c(OC(C)=O)c(C)c4c(c3[C@H](COC1=O)N1C2[C@H]2c3c(cc(C)c(OC)c3O)C[C@@H]([C@@H]1O)N2C)OCO4 (stereo partly drawn) [Ecteinascidin 743] | 95.9 | 6.51 | 50 | – | 97.6 | – | – | – | – | – | –
6 | CC(C)C[C@H](NC(=O)[C@H](Cc1ccccc1)NC(=O)c1cnccn1)B(O)O [Bortezomib (S,S), Bortezomib] | 94.4 | 110 | 20 | – | 48.2 | – | – | – | – | – | –
7 | COC(COC(N)=O)C1=C(N2CC2)C(=O)C(C)=C(N2CC2)C1=O (stereo not drawn) [Carboquone] | 97.4 | 183 | 580 | 1.54 (≈ 0.495 µg/mL) | 98.4 | – | – | – | – | – | –
8 | COC(=O)Nc1nc2ccc(C(=O)c3cccs3)cc2[nH]1 [Nocodazole] | 86.7 | 183 | 370 | 0.15 (≈ 0.0452 µg/mL) | 54.4 | – | – | – | – | – | –
9 | N[C@H](C(=O)O)[C@@H]1CC(Cl)=NO1 [Acivicin] | 85.9 | 170 | 27400 | – | 52.5 | – | – | – | – | – | –
10 | C=CCNC1=C2C[C@@H](C)C[C@H](OC)[C@H](O)[C@@H](C)/C=C(\C)[C@H](OC(N)=O)[C@@H](OC)/C=C\C=C(/C)C(=O)NC(=CC1=O)C2=O [17-Allylamino geldanamycin] | 95.6 | 81.9 | 520 | 13.9 (≈ 8.14 µg/mL) | 86.9 | – | – | – | – | – | –
11 | CC(=O)[C@]1(O)Cc2c(O)c3c(c(O)c2[C@@H](O[C@H]2C[C@H](N)[C@H](O)[C@H](C)O2)C1)C(=O)c1ccccc1C3=O [Idarubicin HCl] | 94.1 | 3260 | 200 | > 41.7 | 88.7 | – | – | – | – | – | –
12 | O=C1c2c(O)ccc(O)c2C(=O)c2c(NCCNCCO)ccc(NCCNCCO)c21 [Mitoxantrone] | 87.5 | 8190 | 5800 | > 41.7 | 95.8 | – | – | – | – | – | –
13 | CCN(CC)C(=S)SSC(=S)N(CC)CC [Disulfiram] | 95 | 6500 | 200 | – | 53.6 | – | – | – | – | – | –
14 | NC(=O)c1cc(N2CC2)c([N+](=O)[O-])cc1[N+](=O)[O-] [CB 1954] | – | – | – | – | – | – | 120 | 96.4 | > 100000 | – | −16.9
15 | O=[N+]([O-])c1ccc(OC2OC(CO)C(O)C(O)C2F)c([N+](=O)[O-])c1 (stereo not drawn) [Dinitroph-dfgp] | 44.2 | 43400 | > 100000 | – | -8 | – | – | – | – | – | –
16 | O=C(Nc1ncc([N+](=O)[O-])s1)c1cccs1 [Tenonitrozol] | 93.1 | 290 | > 100000 | 1.54 (≈ 0.393 µg/mL) | 21.5 | – | – | – | – | – | –
17 | c1ccc2c(c1)[I+]c1ccccc1-2 [Diphenylene- iodonium chloride, diphenyleneiodonium chloride] | 96 | 259 | 2060 | – | 95.9 | – | – | – | – | – | –
18 | Oc1ccc(/C=C\c2cc(O)cc(O)c2)cc1 [Resveratrol] | 80.7 | 4940 | 39200 | > 208 | 22.2 | – | – | – | – | – | –
19 | CC[C@]1(O)C[C@@H]2C[N@@](CCc3c([nH]c4ccccc34)[C@@](C(=O)OC)(c3cc4c(cc3OC)N(C)[C@H]3[C@@](O)(C(=O)OC)[C@H](OC(C)=O)[C@]5(CC)C=CCN6CC[C@]43[C@@H]65)C2)C1 [Vinblastine sulfate] | 90.1 | 1450 | 100 | – | 64.1 | – | – | – | – | – | –
20 | CN(C)C(=S)SSC(=S)N(C)C [Tetramethylthiur am disulfide, tetramethylthiuram disulfide] | 97.6 | 5160 | 520 | – | 97.6 | – | – | – | – | – | –
21 | CCCCc1ccc2[nH]c(NC(=O)OC)nc2c1 [Parbendazole] | 90.2 | 312 | 440 | – | 60.3 | – | – | – | – | – | –
